Experimental data: US20250388529A1, “N-Substituted Phenylalkylamines and Their Use as Therapeutic Agents” (priority 2023, published 2025)
Values joined by “and” are separate entries in the source; they are usually repeats but may differ in a detail not shown here. Equal entries are not always repeated. “Also recorded” adds a separate entry of the source.

What was measured:
human Nav1.1 and Navβ1 [1] = target: T1, human Nav1.1 and Navβ1 (Homo sapiens, UniProt P35498); assay: Manual whole-cell patch clamp sodium current recording, HEK cells expressing hNav1.1 and Navβ1; assay type: cell-based; settings: for reduction in Nav1.1 peak INa: after 3.9 minutes of perfusion
Protocol: Cell lines: Human Embryonic Kidney (HEK) 293 cells stably expressing human VGSC a subunit Nav1.1 (GenBank accession number NP_008851.3) were a gift from Dr. Massimo Mantegazza. Human VGSC β1 subunit GenBank accession number NP_001028.1) cDNA was transfected into this line to generate a second, stable line. Cells were cultured in Dulbecco's Modified Eagle Medium containing (4.5 g/L D-glucose, L-glutamine, 110 mg/L sodium pyruvate, 200 μg/mL G418, 100 U/mL penicillin/streptomycin). All cells were maintained in an incubator at 37° C. with 5% CO2.
Manual Sodium Current Recording: Sodium current (INa) was measured at room temperature using the manual whole-cell patch clamp technique with previously described electrophysiological methods (Chen et al., J Biol Chem., 2012; 287 (46): 39061-39069). Cells were plated on 12 mm diameter clear glass poly-D-lysine coated coverslips (Neuvitro) and used for electrophysiological recordings within 48 hours after plating. Cells were identified with an AIR upright confocal microscope (Nikon). Micropipettes were obtained from 1.5 mm outer diameter capillary glass tubing (Harvard Apparatus) using a P-97 horizontal puller (Sutter Instrument Co.). Micropipettes were then polished using a MF-830 micro forge (Narishige) to obtain a resistance between 2.0 to 5.0 M (2. The intracellular solution contained the following (in mM): 1 NaCl, 125 N-methyl-D-glucamine, 2 MgCl2, 10 EGTA, 40 HEPES, 5 phosphocreatine-tris, 2 Mg-ATP, 0.2 Na2-GTP, 0.1 leupeptin, 270-275 mOsm, pH 7.2 with H2SO4. Extracellular solution contained the following (in mM): 120 NaCl, 1 BaCl2, 2 MgCl2, 0.2 CdCl2, 1 CaCl2), 20 sucrose, 10 glucose, 10 HEPES, 10 tetraethylammonium chloride, 300-305 mOsm, pH 7.35 with NaOH. Signals were amplified using a Multiclamp 700B amplifier (Molecular Devices). Data were acquired with a Digidata 1440A interface (Molecular Devices) and analyzed using pClamp10 offline. Pipette and whole-cell capacitance were fully compensated, and series resistance was predicted and compensated at 50%. Signals were low pass-filtered at 10 kHz, and data were sampled at 20 kHz. Residual linear capacity and leak currents were eliminated using online P/4 subtraction. Gravity-powered perfusion of XOB was used in all manual patch clamp experiments with a flow rate of 2-3 mL/min. All manual whole-cell INa recorded under XOB conditions was conducted after 3.9 minutes of perfusion unless indicated otherwise.

5-HT2B = 5-HT2B (Homo sapiens, UniProt P41595); assay: Gq-mediated calcium flux assay, Flp-In 293 T-Rex inducible cells (agonist and antagonist mode); assay type: cell-based; design: expressed in transfected cells
human 5-HT2C receptor = target: T2, human 5-HT2C receptor (Homo sapiens, UniProt P28335); assay: as above; assay type: cell-based
T2 construct: expressed in transfected cells

HiBiT-5-HT1A = target: T3, HiBiT-5-HT1A (Homo sapiens, UniProt P08908); assay: cell-based; assay type: binding
T3 construct: expressed in transfected cells; host or cells: HEK293 (transient)

human Nav1.1 and Navβ1 [2] = target: T1, human Nav1.1 and Navβ1; assay: cell-based; settings: for Peak INa Density @ −20 mV: I-V curve
HiBiT-5-HT2A = target: T4, HiBiT-5-HT2A (Homo sapiens, UniProt P28223); assay: NanoBRET Target Engagement competitive displacement of […], HiBiT-5-HT2A transiently expressed in HEK293 cells; settings: equilibrium competitive displacement, Cheng-Prusoff; read-out: KI (binding affinity) at 5-HT2A
T4 construct: expressed in transfected cells; host or cells: HEK293 (transient)

5-HT2A = 5-HT2A (Homo sapiens, UniProt P28223); assay: Gq-mediated calcium flux assay, Flp-In 293 T-Rex inducible cells (agonist and antagonist mode); assay type: cell-based; design: expressed in transfected cells
HiBiT-5-HT2C = HiBiT-5-HT2C (Homo sapiens, UniProt P28335); assay: cell-based
[3] = antagonist mode, concentrations up to 10 μM

T3 sequence (P08908 whole entry): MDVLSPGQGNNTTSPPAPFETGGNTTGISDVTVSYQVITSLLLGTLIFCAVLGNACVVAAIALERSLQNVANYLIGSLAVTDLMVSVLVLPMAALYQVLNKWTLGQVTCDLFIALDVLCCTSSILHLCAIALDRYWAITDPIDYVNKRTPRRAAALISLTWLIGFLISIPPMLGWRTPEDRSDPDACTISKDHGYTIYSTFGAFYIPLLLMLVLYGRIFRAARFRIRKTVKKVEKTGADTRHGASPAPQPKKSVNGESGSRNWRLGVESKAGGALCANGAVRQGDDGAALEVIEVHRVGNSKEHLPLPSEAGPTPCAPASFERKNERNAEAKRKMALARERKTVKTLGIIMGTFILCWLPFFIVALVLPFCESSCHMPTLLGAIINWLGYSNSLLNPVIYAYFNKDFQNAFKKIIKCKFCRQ
Sequence of 5-HT2A (P28223 whole entry): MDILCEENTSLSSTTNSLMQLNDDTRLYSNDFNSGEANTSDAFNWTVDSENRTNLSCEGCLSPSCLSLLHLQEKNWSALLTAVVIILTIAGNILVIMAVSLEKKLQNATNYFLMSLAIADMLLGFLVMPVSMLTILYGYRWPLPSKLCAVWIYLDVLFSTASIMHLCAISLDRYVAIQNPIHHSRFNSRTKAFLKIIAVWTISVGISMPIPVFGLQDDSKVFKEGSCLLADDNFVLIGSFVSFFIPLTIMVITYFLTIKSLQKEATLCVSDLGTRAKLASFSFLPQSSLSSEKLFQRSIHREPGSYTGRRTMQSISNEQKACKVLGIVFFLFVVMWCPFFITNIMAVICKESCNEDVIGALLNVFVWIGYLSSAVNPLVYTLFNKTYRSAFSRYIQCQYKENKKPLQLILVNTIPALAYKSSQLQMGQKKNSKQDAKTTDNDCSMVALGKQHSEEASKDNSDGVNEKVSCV
Sequence of 5-HT2B (P41595 whole entry): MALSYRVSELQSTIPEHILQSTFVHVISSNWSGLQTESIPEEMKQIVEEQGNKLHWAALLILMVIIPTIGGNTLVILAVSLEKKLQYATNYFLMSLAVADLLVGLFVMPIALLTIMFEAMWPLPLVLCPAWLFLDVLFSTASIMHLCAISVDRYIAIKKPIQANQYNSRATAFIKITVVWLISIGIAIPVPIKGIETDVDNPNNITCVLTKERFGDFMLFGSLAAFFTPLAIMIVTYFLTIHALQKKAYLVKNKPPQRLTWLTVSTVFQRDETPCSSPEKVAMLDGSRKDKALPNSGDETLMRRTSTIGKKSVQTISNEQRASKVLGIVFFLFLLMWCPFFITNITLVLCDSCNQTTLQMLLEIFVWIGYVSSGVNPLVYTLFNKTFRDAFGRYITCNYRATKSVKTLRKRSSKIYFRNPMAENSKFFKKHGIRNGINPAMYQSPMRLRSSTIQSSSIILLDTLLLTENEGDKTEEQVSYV
T2 sequence (P28335 33-458): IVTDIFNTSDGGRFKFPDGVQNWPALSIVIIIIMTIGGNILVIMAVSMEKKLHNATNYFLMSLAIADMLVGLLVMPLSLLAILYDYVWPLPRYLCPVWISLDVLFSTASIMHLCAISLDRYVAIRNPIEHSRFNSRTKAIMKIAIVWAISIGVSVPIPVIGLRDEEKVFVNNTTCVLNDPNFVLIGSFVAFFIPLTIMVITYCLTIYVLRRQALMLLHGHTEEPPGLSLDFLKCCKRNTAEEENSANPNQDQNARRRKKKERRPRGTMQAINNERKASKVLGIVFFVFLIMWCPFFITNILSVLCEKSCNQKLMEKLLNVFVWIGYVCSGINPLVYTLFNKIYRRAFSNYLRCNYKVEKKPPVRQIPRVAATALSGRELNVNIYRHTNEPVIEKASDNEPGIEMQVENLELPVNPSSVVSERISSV
T4 sequence (P28223 whole entry): as the sequence (P28223 whole entry) above
Sequence of HiBiT-5-HT2C (P28335 33-458): as the sequence (P28335 33-458) above

COc1cc(CCNCCCCCCOCCCCc2ccccc2)c(OC)cc1Br [XOB, N-(4-bromo-2,5-dimethoxyphenethyl)-6-(4-phenylbutoxy)hexan-1-amine]
reduction in Nav1.1 peak INa (human Nav1.1 and Navβ1 [1]; 1 μM): 35.3% | % Initial Peak INa (human Nav1.1 and Navβ1 [1]; 1 μM, time 0 s, step −120 mV to 0 mV): 100% | % Initial Peak INa (human Nav1.1 and Navβ1 [1]; 1 μM, time 31.2 s): 100.6% | % Initial Peak INa (human Nav1.1 and Navβ1 [1]; 1 μM, time 62.4 s): 93.0% | % Initial Peak INa (human Nav1.1 and Navβ1 [1]; 1 μM, time 93.6 s): 88.8% | % Initial Peak INa (human Nav1.1 and Navβ1 [1]; 1 μM, time 124.8 s): 87.0% | % Initial Peak INa (human Nav1.1 and Navβ1 [1]; 1 μM, time 150.8 s): 77.7% | % Initial Peak INa (human Nav1.1 and Navβ1 [1]; 1 μM, time 182 s): 75.1% | % Initial Peak INa (human Nav1.1 and Navβ1 [1]; 1 μM, time 213.2 s): 70.9% | % Initial Peak INa (human Nav1.1 and Navβ1 [1]; 1 μM, time 234 s): 64.7% | reduction in Nav1.1 peak INa (human Nav1.1 and Navβ1 [1]; 5 μM): 95.7% | % Initial Peak INa (human Nav1.1 and Navβ1 [1]; 5 μM, time 0 s, step −120 mV to 0 mV): 100% | % Initial Peak INa (human Nav1.1 and Navβ1 [1]; 5 μM, time 31.2 s): 95.4% | % Initial Peak INa (human Nav1.1 and Navβ1 [1]; 5 μM, time 62.4 s): 40.0% | % Initial Peak INa (human Nav1.1 and Navβ1 [1]; 5 μM, time 93.6 s): 23.7% | % Initial Peak INa (human Nav1.1 and Navβ1 [1]; 5 μM, time 124.8 s): 11.2% | % Initial Peak INa (human Nav1.1 and Navβ1 [1]; 5 μM, time 150.8 s): 9.3% | % Initial Peak INa (human Nav1.1 and Navβ1 [1]; 5 μM, time 182 s): 5.4% | % Initial Peak INa (human Nav1.1 and Navβ1 [1]; 5 μM, time 213.2 s): 6.4% | % Initial Peak INa (human Nav1.1 and Navβ1 [1]; 5 μM, time 234 s): 4.3% | reduction in Nav1.1 peak INa (human Nav1.1 and Navβ1 [1]; 10 μM): 98.6% | % Initial Peak INa (human Nav1.1 and Navβ1 [1]; 10 μM, time 0 s, step −120 mV to 0 mV): 100% | % Initial Peak INa (human Nav1.1 and Navβ1 [1]; 10 μM, time 31.2 s): 97.1% | % Initial Peak INa (human Nav1.1 and Navβ1 [1]; 10 μM, time 62.4 s): 94.8% | % Initial Peak INa (human Nav1.1 and Navβ1 [1]; 10 μM, time 93.6 s): 73.7% | % Initial Peak INa (human Nav1.1 and Navβ1 [1]; 10 μM, time 124.8 s): 28.5% | % Initial Peak INa (human Nav1.1 and Navβ1 [1]; 10 μM, time 150.8 s): 8.7% | % Initial Peak INa (human Nav1.1 and Navβ1 [1]; 10 μM, time 182 s): 2.9% | % Initial Peak INa (human Nav1.1 and Navβ1 [1]; 10 μM, time 213.2 s): 2.5% | % Initial Peak INa (human Nav1.1 and Navβ1 [1]; 10 μM, time 234 s): 1.4% | agonist activity at 5-HT2B (5-HT2B; agonist mode, up to 10 μM): little to no measurable agonist activity | inhibition of 5-HT-mediated calcium flux at 5-HT2B (5-HT2B; [3]): < 50% | agonist activity at 5-HT2C (human 5-HT2C receptor; agonist mode, up to 10 μM): little to no measurable agonist activity | inhibition of 5-HT-mediated calcium flux at 5-HT2C (human 5-HT2C receptor; [3]): < 50% | binding affinity at 5-HT1A (in words) (HiBiT-5-HT1A): no measurable affinity; also recorded: negligible binding affinity | Ki (HiBiT-5-HT1A; equilibrium competitive displacement, Cheng-Prusoff, read-out: KI (binding affinity) at 5-HT1A): > 10000 nM | Bottom of concentration response curve (normalized peak INa inhibition) (human Nav1.1 and Navβ1 [2]): 0.02 | Hill Slope of concentration response curve on peak INa (human Nav1.1 and Navβ1 [2]): 1.45 | Top of concentration response curve (normalized peak INa inhibition) (human Nav1.1 and Navβ1 [2]): 0.88 | effect on voltage-dependence of sodium conductance (human Nav1.1 and Navβ1 [2]): no effect was observed | Normalized Peak INa Inhibition (human Nav1.1 and Navβ1 [2]; 0.1 nM, peak protocol): −0.077 ± 0.08 | Peak INa Density (human Nav1.1 and Navβ1 [2]; 0.1 nM, peak protocol): −429.6 ± 50.7 pA/pF | Peak INa Density @ −20 mV (human Nav1.1 and Navβ1 [2]; 1 nM): −395.9 ± 56.0 pA/pF | Normalized Peak INa Inhibition (human Nav1.1 and Navβ1 [2]; 1 nM, peak protocol): 0.015 ± 0.03 | Peak INa Density (human Nav1.1 and Navβ1 [2]; 1 nM, peak protocol): −386.1 ± 56.6 pA/pF | Peak INa Density @ −20 mV (human Nav1.1 and Navβ1 [2]; 10 nM): −319.1 ± 50.5 pA/pF | Normalized Peak INa Inhibition (human Nav1.1 and Navβ1 [2]; 10 nM, peak protocol): −0.011 ± 0.03 | Peak INa Density (human Nav1.1 and Navβ1 [2]; 10 nM, peak protocol): −311.1 ± 41.7 pA/pF | Peak INa Density @ −20 mV (human Nav1.1 and Navβ1 [2]; 100 nM): −258.3 ± 34.1 pA/pF | Normalized Peak INa Inhibition (human Nav1.1 and Navβ1 [2]; 100 nM, peak protocol): 0.13 ± 0.02 | Peak INa Density (human Nav1.1 and Navβ1 [2]; 100 nM, peak protocol): −276.0 ± 31.0 pA/pF | Peak INa Density @ −20 mV (human Nav1.1 and Navβ1 [2]; 300 nM): −235.1 ± 37.9 pA/pF | Normalized Peak INa Inhibition (human Nav1.1 and Navβ1 [2]; 300 nM, peak protocol): 0.08 ± 0.06 | Peak INa Density (human Nav1.1 and Navβ1 [2]; 300 nM, peak protocol): −259.2 ± 38.0 pA/pF | Peak INa Density @ −20 mV (human Nav1.1 and Navβ1 [2]; 500 nM): −269.2 ± 38.8 pA/pF | Normalized Peak INa Inhibition (human Nav1.1 and Navβ1 [2]; 500 nM, peak protocol): 0.05 ± 0.07 | Peak INa Density (human Nav1.1 and Navβ1 [2]; 500 nM, peak protocol): −284.6 ± 35.2 pA/pF | Peak INa Density @ −20 mV (human Nav1.1 and Navβ1 [2]; 1 μM): −320.5 ± 40.0 pA/pF | Normalized Peak INa Inhibition (human Nav1.1 and Navβ1 [2]; 1 μM, peak protocol): 0.12 ± 0.03 | Peak INa Density (human Nav1.1 and Navβ1 [2]; 1 μM, peak protocol): −319.1 ± 34.5 pA/pF | Activation Slope Factor (human Nav1.1 and Navβ1 [2]; 3 μM): 6.18 ± 1.1 mV^−1 | Activation V1/2 (human Nav1.1 and Navβ1 [2]; 3 μM): −34.32 ± 1.8 mV | Capacitance (human Nav1.1 and Navβ1 [2]; 3 μM): 11.17 ± 1.0 pF | Inactivation Slope Factor (human Nav1.1 and Navβ1 [2]; 3 μM): −6.41 ± 0.7 mV^−1 | Inactivation V1/2 (human Nav1.1 and Navβ1 [2]; 3 μM): −60.46 ± 1.5 mV | Peak INa Density @ −20 mV (human Nav1.1 and Navβ1 [2]; 3 μM): −149.4 ± 22.4 pA/pF | Normalized Peak INa Inhibition (human Nav1.1 and Navβ1 [2]; 3 μM, peak protocol): 0.36 ± 0.05 | Peak INa Density (human Nav1.1 and Navβ1 [2]; 3 μM, peak protocol): −187.1 ± 23.3 pA/pF | Peak INa Density @ −20 mV (human Nav1.1 and Navβ1 [2]; 5 μM): −115.6 ± 20.4 pA/pF | Normalized Peak INa Inhibition (human Nav1.1 and Navβ1 [2]; 5 μM, peak protocol): 0.46 ± 0.06 | Peak INa Density (human Nav1.1 and Navβ1 [2]; 5 μM, peak protocol): −171.3 ± 22.2 pA/pF | reduction of baseline peak INa (human Nav1.1 and Navβ1 [2]; 10 μM): 73±3% | Peak INa Density @ −20 mV (human Nav1.1 and Navβ1 [2]; 10 μM, step −120 mV to −20 mV): −17.46±3.1 pA/pF | Peak INa Density (human Nav1.1 and Navβ1 [2]; 10 μM, peak protocol): −85.4 ± 12.9 pA/pF | Normalized Peak INa Inhibition (human Nav1.1 and Navβ1 [2]; 10 μM, peak protocol, 1−(IDrug÷IReference)): 0.73 ± 0.03 | IC50 (human Nav1.1 and Navβ1 [2]; concentration response curve, peak protocol, read-out: IC50, inhibition of peak INa (VGSC)): 4290 nM | Ki (HiBiT-5-HT2A): 2600 nM and 2000 to 3000 nM | agonist activity at 5-HT2A (5-HT2A; agonist mode, up to 10 μM): little to no measurable agonist activity | IC50 (5-HT2A; antagonist mode, 3.2 nM 5-HT, read-out: IC50, antagonism at 5-HT2A): 1300 nM | EC50 (5-HT2A; antagonist mode, read-out: EC50, antagonizes 5-HT2A): 1300 nM | Ki (HiBiT-5-HT2C): > 10000 nM
